From patent publication US9193710B2, “Benzodiazepinones as modulators of metabotropic glutamate receptor functions and neurological uses thereof” (SANFORD-BURNHAM MEDICAL RESEARCH INSTITUTE, priority 2011, dated 2015)
“Also recorded” adds a separate entry of the source. Like-named read-outs stand apart in the source and are kept apart here.

Legend:
Type in all cases: cell-based
[1] = tested on: human neural stem cells (hNSCs); experiment: Neuronal differentiation of human neural stem cells; parameters: key to Inhibition by LY-354740 / Inhibition by DCG-IV: I—Inhibition; settings: for EC50: Homo sapiens, Neural stem cell; for Inhibition by DCG-IV: inhibition of the compound-induced neurogenesis by the mGluR2/3 agonist DCG-IV; for Inhibition by LY-354740: inhibition of the compound-induced neurogenesis by the group II mGlu agonist LY-354740
Procedure: FIG. 1 is a dose-response curve showing the effect of Compound 1 (8-bromo-4-(pyridazin-4-yl)-1H-benzo[b][1,4]diazepin-2(3H)-one) and DCG-IV, an mGluR2/3 agonist, alone and in combination on neuronal differentiation of cultured human neural stem cells (hNSCs). When run independently, each compound was tested in a concentration response curve ranging from 0.01 μM to 31.6 μM. Data are presented as the percentage of the neuronal positive control, with basal media values subtracted. […] In combination, the compounds were combined at equal concentrations at each point (for example, the first point in the combined curve consisted of a test of 0.01 μM Compound 1 and 0.01 μM DCG-IV).
Human neural stem cells (hNSCs) were isolated and grown in monolayer culture, plated, treated with varying concentrations of 8-bromo-4-(pyridazin-4-yl)-1H-benzo[b][1,4]diazepin-2(3H)-one (Compound 1), and stained with TUJ-1 antibody, as described in U.S. Patent Application Publication No. US2007/0015138. Mitogen-free test media with a positive control for neuronal differentiation was used along with basal media without growth factors as a negative control. […] The data are presented as a percent of neuronal positive control.
The same protocol used for exemplary Compound 1 (FIG. 1 and Example 55) was used to test these compounds. LY-354740 (eglumegad) is an agonist of the group II mGlu receptors.

mGluR3 = target: T1, mGluR3 (Homo sapiens, UniProt Q14832); experiment: Functional assay (FLIPR), mGluR3; settings: class symbols: IC50 or inhibition at fixed concentration; CHO cells over-expressing mGluR3, calcium signal
T1 construct: expressed in transfected cells; transient Galpha16 co-transfection
Procedure: (§1) The compounds are further characterized through functional assays known in the art for studying potential mGluR agents. As a non-limiting example, the assay may be conducted as follows. Chinese hamster ovary (CHO) cells stably over-expressing either mGluR2 or mGluR3 are seeded into multiwell plates and transiently transfected overnight at 37° C. with a cDNA construct expressing G-protein coupled to intracellular calcium such as Gα16. The following day cells are washed with Hank's balanced salt solution containing calcium and magnesium. Cells are loaded for 1-2 hours with a calcium dye such as Fluo4 at 37° C.
The test compound may be added prior to or concurrent with the loading of the cells with Fluo4. Pre-incubation with compounds can vary from 5 minutes up 2 hours. Pre-incubation is done if the assay is testing for antagonists, positive allosteric modulators or negative allosteric modulators. No pre-incubation is done if the assay is testing for agonist activity. For testing antagonists or negative allosteric modulators an EC80 of the endogenous ligand, glutamate, is used. For testing positive allosteric modulators an EC20 of the endogenous ligand, glutamate, is used. Cells plates are loaded into a real-time fluorescence reader such as the FLIPR Tetra or the Flexstation 3. A base line is recorded for 15 seconds before cells are stimulated with either glutamate or other agonists. The real-time fluorescent signal is recorded for another 2 minutes. The peak of the fluorescent signal is determined. Data are either expressed as percent of the glutamate response in terms of a single determination or concentration curves are fitted with a four parameter logistic equation giving EC50 or IC50 values.

mGluR2 = target: T2, mGluR2 (Homo sapiens, UniProt Q14416); experiment: Functional assay (FLIPR), mGluR2; settings: class symbols: IC50 or inhibition at fixed concentration; CHO cells over-expressing mGluR2, calcium signal
T2 construct: expressed in transfected cells; transient Galpha16 co-transfection
Procedure: as §1
The test compound may be added prior to or concurrent with the loading of the cells with Fluo4. Pre-incubation with compounds can vary from 5 minutes up 2 hours. […] Cells plates are loaded into a real-time fluorescence reader such as the FLIPR Tetra or the Flexstation 3. A base line is recorded for 15 seconds before cells are stimulated with either glutamate or other agonists. The real-time fluorescent signal is recorded for another 2 minutes. The peak of the fluorescent signal is determined. Data are either expressed as percent of the glutamate response in terms of a single determination or concentration curves are fitted with a four parameter logistic equation giving EC50 or IC50 values.

[2] = neuronal differentiation of hNSCs, TUJ-1 staining, read-out: Neurogenesis EC50

T1 sequence (Q14832 23-879): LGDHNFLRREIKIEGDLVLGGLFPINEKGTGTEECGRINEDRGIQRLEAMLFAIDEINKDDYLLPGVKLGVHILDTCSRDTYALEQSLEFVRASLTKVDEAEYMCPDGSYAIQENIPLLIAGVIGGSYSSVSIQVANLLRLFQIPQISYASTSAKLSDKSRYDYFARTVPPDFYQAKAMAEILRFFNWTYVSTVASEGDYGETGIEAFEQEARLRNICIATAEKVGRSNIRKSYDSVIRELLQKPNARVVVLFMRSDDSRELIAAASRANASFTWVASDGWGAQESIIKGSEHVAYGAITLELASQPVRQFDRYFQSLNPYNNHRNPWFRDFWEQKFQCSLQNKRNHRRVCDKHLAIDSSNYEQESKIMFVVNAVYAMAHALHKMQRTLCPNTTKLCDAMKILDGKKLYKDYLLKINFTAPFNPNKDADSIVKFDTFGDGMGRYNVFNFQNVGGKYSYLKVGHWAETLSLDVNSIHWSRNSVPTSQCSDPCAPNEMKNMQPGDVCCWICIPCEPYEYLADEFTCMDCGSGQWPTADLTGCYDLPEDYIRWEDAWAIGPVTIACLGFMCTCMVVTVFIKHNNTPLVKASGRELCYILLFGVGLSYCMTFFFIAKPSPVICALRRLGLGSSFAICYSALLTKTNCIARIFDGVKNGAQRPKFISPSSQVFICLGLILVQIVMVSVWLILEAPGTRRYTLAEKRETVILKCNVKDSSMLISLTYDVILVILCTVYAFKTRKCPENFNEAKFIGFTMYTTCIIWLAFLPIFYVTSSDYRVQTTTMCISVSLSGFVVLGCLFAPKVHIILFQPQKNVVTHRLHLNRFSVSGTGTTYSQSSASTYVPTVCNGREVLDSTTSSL
T2 sequence (Q14416 19-872): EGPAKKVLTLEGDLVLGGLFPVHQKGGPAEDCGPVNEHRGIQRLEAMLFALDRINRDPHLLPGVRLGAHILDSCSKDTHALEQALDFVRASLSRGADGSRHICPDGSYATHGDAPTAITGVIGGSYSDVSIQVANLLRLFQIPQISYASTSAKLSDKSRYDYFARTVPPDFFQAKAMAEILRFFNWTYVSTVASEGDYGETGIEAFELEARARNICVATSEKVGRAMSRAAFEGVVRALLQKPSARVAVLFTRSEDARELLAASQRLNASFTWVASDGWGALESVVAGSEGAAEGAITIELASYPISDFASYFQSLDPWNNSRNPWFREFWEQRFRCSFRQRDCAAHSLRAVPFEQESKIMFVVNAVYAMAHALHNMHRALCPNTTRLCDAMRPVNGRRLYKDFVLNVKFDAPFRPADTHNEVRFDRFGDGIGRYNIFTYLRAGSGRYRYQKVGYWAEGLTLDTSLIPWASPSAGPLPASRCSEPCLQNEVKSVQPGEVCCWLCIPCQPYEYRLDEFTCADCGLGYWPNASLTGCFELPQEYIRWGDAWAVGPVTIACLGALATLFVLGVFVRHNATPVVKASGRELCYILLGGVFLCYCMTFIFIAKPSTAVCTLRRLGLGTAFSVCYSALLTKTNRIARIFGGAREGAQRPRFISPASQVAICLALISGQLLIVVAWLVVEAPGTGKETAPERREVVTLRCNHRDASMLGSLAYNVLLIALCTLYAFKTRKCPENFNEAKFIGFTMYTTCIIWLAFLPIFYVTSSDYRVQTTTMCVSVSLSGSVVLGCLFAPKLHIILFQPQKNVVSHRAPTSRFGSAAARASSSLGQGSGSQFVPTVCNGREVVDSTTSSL

Compound	EC50 [1, 2] [µM]	further results
O=C1CC(c2ccnnc2)=Nc2ccc(Br)cc2N1 [Compound 1, 8-bromo-4-(pyridazin-4-yl)-1H-benzo[b][1,4]diazepin-2(3H)-one]	1 to 5	effect on neuronal differentiation (neurogenesis), tested alone ([1]; FIG. 1, 0.01 μM to 31.6 μM): promoted neuronal differentiation in a concentration dependent manner; neurogenesis in combination with DCG-IV ([1]; FIG. 1, Compound 1 and DCG-IV at equal concentrations (1:1 ratio) at each point): no noted neurogenesis; also recorded: did not induce neurogenesis; EC50 ([1]; FIG. 1, 0.01 μM to 31.6 μM, percentage of neuronal positive control, basal media subtracted, read-out: EC50, neuronal differentiation dose-response curve): 2.53 µM; Inhibition by DCG-IV [1]: I
O=C1CC(c2ccnnc2)=Nc2ccc(C(F)(F)F)cc2N1 [Compound 2, 8-trifluoromethyl-4-(pyridazin-4-yl)-1H-benzo[b][1,4]diazepin-2(3H)-one]	1 to 5	Inhibition by LY-354740 [1]: I
O=C1CC(c2ccnnc2)=Nc2ccc(I)cc2N1 [Compound 3, 8-iodo-4-(pyridazin-4-yl)-1H-benzo[b][1,4]diazepin-2(3H)-one]	1 to 5	Inhibition by LY-354740 [1]: I
COC(=O)c1ccc2c(c1)NC(=O)CC(c1ccnnc1)=N2 [Compound 4, Methyl 2-oxo-4-(pyridazin-4-yl)-2,3-dihydro-1H-benzo[b][1,4]diazepine-8-carboxylate]	1 to 5	–
O=C1CC(c2ccnnc2)=Nc2ccc(Cl)cc2N1 [Compound 5, 8-chloro-4-(pyridazin-4-yl)-1H-benzo[b][1,4]diazepin-2(3H)-one]	< 1	–
O=C1CC(c2ccnnc2)=Nc2ccc(F)cc2N1 [Compound 6, 8-fluoro-4-(pyridazin-4-yl)-1H-benzo[b][1,4]diazepin-2(3H)-one]	1 to 5	–
O=C1CC(c2cncnc2)=Nc2ccc(Br)cc2N1 [Compound 7, 8-Bromo-4-(pyrimidin-3-yl)-1H-benzo[b][1,4]diazepin-2(3H)-one]	> 5	–
O=C1CC(c2cnccn2)=Nc2ccc(Br)cc2N1 [Compound 8, 8-Bromo-4-(pyrazin-2-yl)-1H-benzo[b][1,4]diazepin-2(3H)-one]	> 5	–
Cc1ccc(C2=Nc3ccc(Br)cc3NC(=O)C2)nn1 [Compound 9]	1 to 5	–
O=C1CC(c2ccc(Cl)nn2)=Nc2ccc(Br)cc2N1 [Compound 10]	1 to 5	–
O=C1CC(c2ccnnc2)=Nc2ccc(C(=O)O)cc2N1 [Compound 12, 2-oxo-4-(pyridazin-4-yl)-2,3-dihydro-1H-benzo[b][1,4]diazepine-8-carboxylic acid]	< 1	Inhibition by LY-354740 [1]: I
Cc1cc2c(cc1C)NC(=O)CC(c1ccnnc1)=N2 [Compound 13, 7,8-Dimethyl-4-(pyridazin-4-yl)-1H-benzo[b][1,4]diazepin-2(3H)-one]	> 5	–
O=C1CC(c2ccnnc2)=Nc2ccc(-c3cccs3)cc2N1 [Compound 15, 8-(Thiophen-2-yl)-4-(pyridazin-4-yl)-1H-benzo[b][1,4]diazepin-2(3H)-one]	1 to 5	Inhibition by LY-354740 [1]: I; Inhibition by DCG-IV [1]: I
O=C1CC(c2ccnnc2)=Nc2ccc(-c3ccccc3F)cc2N1 [Compound 16, 8-(2-Fluorophenyl)-4-(pyridazin-4-yl)-1H-benzo[b][1,4]diazepin-2(3H)-one]	> 5	–
COc1ccc(-c2ccc3c(c2)NC(=O)CC(c2ccnnc2)=N3)cc1OC [Compound 17, 8-(3,4-Dimethoxyphenyl)-4-(pyridazin-4-yl)-1H-benzo[b][1,4]diazepin-2(3H)-one]	> 5	–
O=C1CC(c2ccc(O)nn2)=Nc2ccc(Br)cc2N1 [Compound 33, 8-Bromo-4-(6-hydroxypyridazin-3-yl)-1H-benzo[b][1,4]diazepin-2(3H)-one]	–	mGluR3 FLIPR (mGluR3): B (B=inhibition at 101.1M>50%)
O=C1CC(c2ccc3[nH]c(=O)sc3c2)=Nc2ccc(Br)cc2N1 [Compound 35, 6-(8-bromo-2-oxo-2,3-dihydro-1H-benzo[b][1,4]diazepin-4-yl)benzo[d]thiazol-2(3H)-one]	–	mGluR3 FLIPR (mGluR3): C (C=inhibition at 101.1M<50%)
O=C1CC(c2ccc3[nH]c(=O)sc3c2)=Nc2ccc(C#Cc3ccccc3F)cc2N1 [Compound 36, 6-(8-((2-fluorophenyl)ethynyl)-2-oxo-2,3-dihydro-1H-benzo[b][1,4]diazepin-4-yl)benzo[d]thiazol-2(3H)-one]	–	mGluR3 FLIPR (mGluR3): C (C=inhibition at 101.1M<50%)
O=C1CC(c2cccc(Br)c2)=Nc2ccc(NC(=O)OCc3ccccc3)cc2N1 [Compound 82, benzyl(4-(3-bromophenyl)-2-oxo-2,3-dihydro-1H-benzo[b][1,4]diazepin-8-yl)carbamate]	–	mGluR2 FLIPR (mGluR2): A (A=IC50<1 μM)
N[C@H](C(=O)O)C1[C@@H](C(=O)O)[C@@H]1C(=O)O (some centres unmarked) [DCG-IV, reference compound]	–	effect on neuronal differentiation (neurogenesis), tested alone ([1]; FIG. 1, 0.01 μM to 31.6 μM): no effect; also recorded: did not induce neurogenesis
